# Laboratory results taken from patent US10112937B2, “P2X7 modulators and methods of use” (Janssen Pharmaceutica NV, priority 2013, dated 2018).
# Target: human P2X7 (Homo sapiens (Human), UniProt Q99572)
# Test: P2X7 antagonism in human PBMCs (IL-1β release after LPS + Bz-ATP, ELISA)
# Format: cell-based
# Conditions: test compound 10 μM
# Description: P2X7 Antagonism in Human Peripheral Blood Mononuclear Cells (PBMCs) and Human Whole Blood.
# Human blood was collected using a blood donor program. PBMCs were isolated from blood using a Ficoll density gradient technique. Briefly, blood was laid on Ficoll solution and centrifuged at RT for 20 minutes at 2000 rpm. The buffy layer (between red blood cells and plasma) was carefully collected by aspiration, washed with PBS and centrifuged again at 1500 rpm for 15 minutes. The resulting cell pellet was washed and plated on 96 well-plates for experiments. For the Human Whole Blood experiments, 150 μl of human blood was platted on 96 well-plates. Lipopolysaccharide (LPS) (30 ng/ml) was added to each well and incubated for 1 hour. Test compounds were then added and incubated for 30 minutes. The P2X7 agonist, 2′(3′)-O-(4-benzoylbenzoyl) adenosine 5′ triphosphate (Bz-ATP) was then added at a final concentration of 0.5 mM (PBMC) or 1 mM (blood). Cells were incubated for an additional 1.5 hours. At that point, supernatant was collected and stored for IL-1β assay using manufacturer's protocol for enzyme-linked immunosorbent assay (ELISA). Data was expressed as percent control, where control is defined as the difference in IL-1β release in LPS+Bz-ATP samples and LPS only samples. Data was plotted as response (% control) versus concentration to generate IC50 values. […] Data are analyzed and graphed on Graphpad Prism 5. For analysis, each concentration point is averaged from triplicate values and the averaged values are plotted on Graphpad Prism.
# Sequence of human P2X7 (Q99572 whole entry): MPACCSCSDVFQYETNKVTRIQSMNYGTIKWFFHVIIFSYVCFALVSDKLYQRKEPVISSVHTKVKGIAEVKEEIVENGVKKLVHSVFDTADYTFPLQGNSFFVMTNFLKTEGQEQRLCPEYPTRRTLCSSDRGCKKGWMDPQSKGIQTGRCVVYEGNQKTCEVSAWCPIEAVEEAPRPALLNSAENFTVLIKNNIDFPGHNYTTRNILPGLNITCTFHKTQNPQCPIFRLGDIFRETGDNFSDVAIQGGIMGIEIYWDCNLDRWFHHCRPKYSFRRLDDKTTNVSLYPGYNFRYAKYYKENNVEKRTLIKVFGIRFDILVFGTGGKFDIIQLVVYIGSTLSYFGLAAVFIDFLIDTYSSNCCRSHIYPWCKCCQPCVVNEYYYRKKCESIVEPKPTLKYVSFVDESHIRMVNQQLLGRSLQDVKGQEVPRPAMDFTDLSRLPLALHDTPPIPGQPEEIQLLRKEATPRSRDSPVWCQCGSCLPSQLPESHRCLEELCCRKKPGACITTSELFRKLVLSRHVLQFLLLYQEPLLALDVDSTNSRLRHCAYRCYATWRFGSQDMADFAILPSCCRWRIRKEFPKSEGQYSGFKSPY
Structure (SMILES),PBMC 10 μM (% control) (human PBMCs),PBMC 10 μM (% control) (LPS 30 ng/ml + 0.5 mM Bz-ATP)
"CC1CN(C(=O)c2cccc(C(F)(F)F)c2Cl)C(C)c2nnn(-c3ccc(F)cc3)c21 (stereo not shown) [Example 238, (2-Chloro-3-(trifluoromethyl)phenyl)(1-(4-fluorophenyl)-4,7-dimethyl-6,7-dihydro-1H-[1,2,3]triazolo[4,5-c]pyridin-5(4H)-yl)methanone]",−4.1 % control,
"CC1Cc2c(nnn2-c2ccccc2)C(C)N1C(=O)c1cccc(C(F)(F)F)c1Cl (stereo not shown) [Example 240, (2-Chloro-3-(trifluoromethyl)phenyl)(4,6-dimethyl-1-phenyl-6,7-dihydro-1H-[1,2,3]triazolo[4,5-c]pyridin-5(4H)-yl)methanone]",−8.9 % control,
"CC1CN(C(=O)c2cccc(C(F)(F)F)c2Cl)C(C)c2nnn(-c3ccccc3)c21 (stereo not shown) [Example 241, (2-Chloro-3-(trifluoromethyl)phenyl)(4,7-dimethyl-1-phenyl-6,7-dihydro-1H-[1,2,3]triazolo[4,5-c]pyridin-5(4H)-yl)methanone]",6.5 % control,
"CC1Cc2c(nnn2-c2ccc(F)cc2)C(C)N1C(=O)c1cccc(Cl)c1Cl (stereo not shown) [Example 242, (2,3-Dichlorophenyl)(1-(4-fluorophenyl)-4,6-dimethyl-6,7-dihydro-1H-[1,2,3]triazolo[4,5-c]pyridin-5(4H)-yl)methanone]",−3.4 % control,
"CC1Cc2c(nnn2-c2ccc(F)cc2)C(C)N1C(=O)c1cccc(C(F)(F)F)c1Cl (stereo not shown) [Example 243, (2-Chloro-3-(trifluoromethyl)phenyl)(1-(4-fluorophenyl)-4,6-dimethyl-6,7-dihydro-1H-[1,2,3]triazolo[4,5-c]pyridin-5(4H)-yl)methanone]",1.0 % control,
"CC1CN(C(=O)c2cccc(Cl)c2Cl)Cc2nnn(-c3ccccc3)c21 (stereo not shown) [Example 244, (2,3-Dichlorophenyl)(7-methyl-1-phenyl-6,7-dihydro-1H-[1,2,3]triazolo[4,5-c]pyridin-5(4H)-yl)methanone]",−2.3 % control,
"CC1CN(C(=O)c2cccc(C(F)(F)F)c2Cl)Cc2nnn(-c3ccccc3)c21 (stereo not shown) [Example 245, (2-Chloro-3-(trifluoromethyl)phenyl)(7-methyl-1-phenyl-6,7-dihydro-1H-[1,2,3]triazolo[4,5-c]pyridin-5(4H)-yl)methanone]",−7.3 % control,
"Cc1cc(C)nc(-n2nnc3c2CCN(C(=O)c2cccc(C(F)(F)F)c2Cl)C3C)n1 (stereo not shown) [Example 253, (2-Chloro-3-(trifluoromethyl)phenyl)(1-(4,6-dimethylpyrimidin-2-yl)-4-methyl-6,7-dihydro-1H-[1,2,3]triazolo[4,5-c]pyridin-5(4H)-yl)methanone]",−2.6 % control,−2.6 % control

# The next lines start with results.
PBMC 10 μM (% control) (human PBMCs),Structure (SMILES),PBMC 10 μM (% control) (LPS 30 ng/ml + 0.5 mM Bz-ATP)
−3.1 % control,"CC1CN(C(=O)c2cccc(C(F)(F)F)c2Cl)Cc2nnn(-c3ccc(F)cc3)c21 (stereo not shown) [Example 246, (2-Chloro-3-(trifluoromethyl)phenyl)(1-(4-fluorophenyl)-7-methyl-6,7-dihydro-1H-[1,2,3]triazolo[4,5-c]pyridin-5(4H)-yl)methanone]",
−0.8 % control,"CC1CN(C(=O)c2cccc(Cl)c2Cl)Cc2nnn(-c3ccc(F)cc3)c21 (stereo not shown) [Example 247, (2,3-Dichlorophenyl)(1-(4-fluorophenyl)-7-methyl-6,7-dihydro-1H-[1,2,3]triazolo[4,5-c]pyridin-5(4H)-yl)methanone]",
−1.3 % control,"CC1c2nnn(-c3ncco3)c2CCN1C(=O)c1cccc(C(F)(F)F)c1Cl (stereo not shown) [Example 250, (2-Chloro-3-(trifluoromethyl)phenyl)(4-methyl-1-(oxazol-2-yl)-6,7-dihydro-1H-[1,2,3]triazolo[4,5-c]pyridin-5(4H)-yl)methanone]",
−0.8 % control,"Cc1ccnc(-n2nnc3c2CCN(C(=O)c2cccc(C(F)(F)F)c2Cl)C3C)n1 (stereo not shown) [Example 252, (2-Chloro-3-(trifluoromethyl)phenyl)(4-methyl-1-(4-methylpyrimidin-2-yl)-6,7-dihydro-1H-[1,2,3]triazolo[4,5-c]pyridin-5(4H)-yl)methanone]",
